Source: patent publication US20190241569A1, “3-(ARYL OR HETEROARYL) METHYLENEINDOLIN-2-ONE DERIVATIVES AS INHIBITORS OF CANCER STEM CELL PATHWAY KINASES FOR THE TREATMENT OF CANCER” (Boston Biomedical, Inc., priority 2013, published 2019)
pIC50: −log10 of the molar value.

What was measured:
Type in all cases: cell-based
FaDu CSC = test: Cancer stem cells, Cell Titer-Glo 72 hours (Test Example 3); conditions: Homo sapiens, FaDu, 72 h
A549 CSC = test: as above; conditions: Homo sapiens
ACHN CSC = test: as above; conditions: Homo sapiens, ACHN, 72 h
ACHN = test: Bulk cancer cells, Cell Titer-Glo 72 hours (Test Example 2); conditions: Homo sapiens, ACHN, 72 h
Description: (§1) Tubes of 3× drug (60 uM in 500 uL complete media) were prepared from 5 mM stock solutions in DMSO. […] To treat cells, 50 uL of drug from the dilution plate was removed and added to the cell plates. […] Cells were harvested 72 hours after drug addition using Cell Titer-Glo (Promega) and luminescence measured on a plate reader.

A549 = test: as above; conditions: Homo sapiens
Description: as §1

FaDu = test: as above; conditions: Homo sapiens
Description: as §1

Row | SMILES | pIC50 (FaDu CSC) | pIC50 (A549 CSC) | pIC50 (ACHN CSC) | pIC50 (ACHN) | pIC50 (A549) | pIC50 (FaDu)
1 | Cc1ccc(-c2nc(-c3ccc4c(c3)/C(=C/c3[nH]c(C)c(C(=O)NCCN5CCCC5)c3C)C(=O)N4)cs2)cc1 [Example 103] | 6.51 | 4.91 | 6.85 | 5.63 | 5.22 | 5.37
2 | Cc1[nH]c(/C=C2\C(=O)Nc3ccc(-c4csc(-c5ccccc5)n4)cc32)c(C)c1S(=O)(=O)N1CCOCC1 [Example 147] | 6.68 | 5.43 | 6.25 | 4.97 | 5.14 | 4.94
3 | CCN(CC)CCNC(=O)CCc1c(C)[nH]c(/C=C2\C(=O)Nc3ccc(-c4csc(-c5ccccc5)n4)cc32)c1C [Example 149] | 5.45 | 5.06 | 5.37 | 5.61 | 5.95 | 5.41
4 | O=C1Nc2ccc(-c3csc(-c4ccccc4)n3)cc2/C1=C/c1ncc[nH]1 [Example 150] | 5.60 | 5.64 | 5.54 | 5.84 | 4.76 | 5.12
5 | O=C1Nc2ccc(-c3csc(-c4ccncc4)n3)cc2/C1=C/c1cnc[nH]1 [Example 152] | 4.66 | 5.14 | 4.54 | 5.44 | 5.04 | 5.78
6 | CCN(CC)CCNC(=O)CCc1c(C)[nH]c(/C=C2\C(=O)Nc3ccc(-c4csc(-c5ccncc5)n4)cc32)c1C [Example 167] | 5.34 | 4.45 | 5.91 | 5.13 | 5.00 | 4.55
7 | CCN(CC)CCNC(=O)c1c(C)[nH]c(/C=C2\C(=O)Nc3ccc(-c4cnccn4)cc32)c1C [Example 180] | 6.64 | 4.88 | 5.58 | 5.00 | 4.98 | 5.18
8 | CCN(CC)CCNC(=O)c1c(C)[nH]c(/C=C2\C(=O)Nc3ccc(-c4ncccn4)cc32)c1C [Example 182] | 7.05 | 4.74 | 5.94 | 5.46 | 4.81 | 5.22
9 | CCN(CC)CCNC(=O)c1c(C)[nH]c(/C=C2\C(=O)Nc3ccc(-c4nccc5ccccc45)cc32)c1C [Example 187] | 7.52 | 4.86 | 6.15 | 5.30 | 5.50 | 5.67
10 | CCN(CC)CCNC(=O)c1c(C)[nH]c(/C=C2\C(=O)Nc3ccc(-c4ccc(OC)cn4)cc32)c1C [Example 188] | 6.80 | 5.05 | 5.97 | 5.19 | 4.97 | 5.15
11 | CCN(CC)CCNC(=O)c1c(C)[nH]c(/C=C2\C(=O)Nc3ccc(-c4csc(-n5ccnc5)n4)cc32)c1C [Example 196] | 4.66 | 4.73 | 5.52 | 5.02 | 5.21 | 5.25
12 | CCN(CC)CCNC(=O)c1c(C)[nH]c(/C=C2\C(=O)Nc3ccc(-c4cc(-c5ccccc5)ccn4)cc32)c1C [Example 198] | 5.01 | 5.70 | 6.05 | 5.62 | 5.82 | 5.59
13 | CCN(CC)CCNC(=O)c1c(C)[nH]c(/C=C2\C(=O)Nc3ccc(-c4cnc5ccccc5c4)cc32)c1C [Example 204] | 5.26 | 5.17 | 6.21 | 5.19 | 5.41 | 5.34
14 | CCN(CC)CCNC(=O)c1c(C)[nH]c(/C=C2\C(=O)Nc3ccc(-c4cscc4C)cc32)c1C [Example 206] | 5.04 | 5.40 | 6.32 | 5.57 | 5.70 | 5.43
15 | CCN(CC)CCNC(=O)c1c(C)[nH]c(/C=C2\C(=O)Nc3ccc(-c4ccncc4)cc32)c1C [Example 208] | 4.79 | 5.01 | 5.67 | 4.94 | 5.15 | 5.17

Further molecules by rising pIC50 (FaDu CSC), results first:

Row | pIC50 (FaDu CSC) | pIC50 (A549 CSC) | pIC50 (ACHN CSC) | pIC50 (ACHN) | pIC50 (A549) | pIC50 (FaDu) | SMILES
16 | 4.70 | 4.88 | 5.73 | 5.38 | 5.38 | 5.12 | CCN(CC)CCNC(=O)c1c(C)[nH]c(/C=C2\C(=O)Nc3ccc(-c4ncccc4C)cc32)c1C [Example 203]
17 | 4.75 | 4.76 | 5.46 | 5.33 | 5.23 | 5.33 | CCN(CC)CCNC(=O)c1c(C)[nH]c(/C=C2\C(=O)Nc3ccc(-c4cnc5ccccn45)cc32)c1C [Example 192]
18 | 4.92 | 4.66 | 5.57 | 4.73 | 5.03 | 4.68 | O=C1Nc2ccc(-c3csc(C4CCNCC4)n3)cc2/C1=C/c1cc2c([nH]1)CCCC2 [Example 157]
19 | 5.00 | 4.75 | 6.26 | 5.44 | 5.13 | 5.34 | CCN(CC)CCNC(=O)c1c(C)[nH]c(/C=C2\C(=O)Nc3ccc(-c4cncnc4)cc32)c1C [Example 207]
20 | 5.17 | 5.32 | 5.21 | 4.90 | 5.02 | 4.73 | COC(=O)c1c(C)[nH]c(/C=C2\C(=O)Nc3ccc(-c4csc(-c5ccncc5)n4)cc32)c1C [Example 145]
21 | 5.22 | 5.38 | 6.01 | 5.02 | 5.43 | 5.31 | CCN(CC)CCNC(=O)c1c(C)[nH]c(/C=C2\C(=O)Nc3ccc(-c4nc5ccccc5s4)cc32)c1C [Example 191]
22 | 5.29 | 5.18 | 6.21 | 5.10 | 5.43 | 5.33 | CCN(CC)CCNC(=O)c1c(C)[nH]c(/C=C2\C(=O)Nc3ccc(-c4csc(-n5cccn5)n4)cc32)c1C [Example 195]
23 | 5.33 | 5.35 | 6.24 | 5.28 | 5.55 | 5.37 | CCN(CC)CCNC(=O)c1c(C)[nH]c(/C=C2\C(=O)Nc3ccc(-c4cccc(C#N)c4C)cc32)c1C [Example 205]
24 | 5.40 | 5.19 | 6.20 | 5.13 | 5.64 | 5.31 | CCN(CC)CCNC(=O)c1c(C)[nH]c(/C=C2\C(=O)Nc3ccc(-c4ccc(-c5ccccc5)nc4)cc32)c1C [Example 194]
25 | 5.44 | 4.98 | 6.16 | 4.95 | 5.00 | 4.74 | CCN(CC)CCN(C)C(=O)c1c(C)[nH]c(/C=C2\C(=O)Nc3ccc(-c4csc(-c5ccccc5)n4)cc32)c1C [Example 129, (Z)-N-(2-(diethylamino)ethyl)-N,2,4-trimethyl-5-((2-oxo-5-(2-phenylthiazol-4-yl)indolin-3-ylidene)methyl)-1H-pyrrole-3-carboxamide]
26 | 5.47 | 5.18 | 6.19 | 5.34 | 5.42 | 5.50 | CCN(CC)CCNC(=O)c1c(C)[nH]c(/C=C2\C(=O)Nc3ccc(-c4cnsc4)cc32)c1C [Example 200]
27 | 5.50 | 4.57 | 5.39 | 4.83 | 5.40 | 4.94 | CCN(CC)CCNC(=O)c1cc(C)c(/C=C2\C(=O)Nc3ccc(-c4csc(-c5ccccc5)n4)cc32)[nH]1 [Example 165]
28 | 6.12 | 5.69 | 7.00 | 5.39 | 5.26 | 5.29 | O=C1Nc2ccc(-c3csc(C4CCNCC4)n3)cc2/C1=C/c1cc2ccccc2[nH]1 [Example 168]
29 | 6.66 | 5.47 | 5.94 | 5.53 | 5.19 | 5.52 | CCN(CC)CCNC(=O)c1c(C)[nH]c(/C=C2\C(=O)Nc3ccc(-c4ccc(C)cn4)cc32)c1C [Example 184]
30 | 6.72 | 5.65 | 6.62 | 5.71 | 5.55 | 5.75 | CCN(CC)CCNC(=O)c1c(C)[nH]c(/C=C2\C(=O)Nc3ccc(-c4cccc(OC)n4)cc32)c1C [Example 190]
31 | 6.74 | 5.26 | 5.97 | 5.65 | 5.14 | 5.59 | CCN(CC)CCNC(=O)c1c(C)[nH]c(/C=C2\C(=O)Nc3ccc(-c4ccccn4)cc32)c1C [Example 183]
32 | 6.80 | 4.58 | 4.97 | 5.56 | 5.49 | 5.83 | CCN(CC)CCNC(=O)c1c(C)[nH]c(/C=C2\C(=O)Nc3ccc(-c4cnc5cn[nH]c5c4)cc32)c1C [Example 181]
33 | 7.15 | 5.16 | 5.85 | 5.15 | 5.13 | 5.58 | CCN(CC)CCNC(=O)c1c(C)[nH]c(/C=C2\C(=O)Nc3ccc(-c4ncccc4OC)cc32)c1C [Example 189]
34 | 7.22 | 5.18 | 5.56 | 5.44 | 5.44 | 5.76 | CCN(CC)CCNC(=O)c1c(C)[nH]c(/C=C2\C(=O)Nc3ccc(-c4cnc5cccnn45)cc32)c1C [Example 179]
35 | 7.40 | 4.37 | 5.25 | 5.24 | 5.09 | 5.58 | CCN(CC)CCNC(=O)c1c(C)[nH]c(/C=C2\C(=O)Nc3ccc(-c4cnc5ccccc5n4)cc32)c1C [Example 185]
